Values quoted from earlier work, collected in patent US20070237820A1, “Pharmaceutical formulations containing a non-steroidal antinflammatory drug and an antiulcerative drug” (Andrx Pharmaceuticals, LLC, priority 2004, published 2007).

Tests used:
[1] = NSAIDs such as diclofenac
[2] = patients on chronic use

| SMILES | patients with side effects that require cessation of medication [1] | patients experiencing gross bleeding and ulceration [2] |
| --- | --- | --- |
| O=C(O)Cc1ccccc1Nc1c(Cl)cccc1Cl [diclofenac] | about 20% |  |
| CN1C(C(=O)Nc2ccccn2)=C(O)c2ccccc2S1(=O)=O [piroxicam] |  | up to 4% |
